From paper PMC2965585 (Bioorganic & medicinal chemistry letters, 2010)

Columns and labels:
[1] = tested on: Lethal Toxin (LT; PA + LF); parameters: species or system Fischer 344 rats; conditions: rat, in vivo
[2] = target: anthrax lethal factor (LF) (Bacillus anthracis, UniProt P15917); type: biochemical
anthrax lethal factor (LF), sequence (P15917 34-809 limits assumed): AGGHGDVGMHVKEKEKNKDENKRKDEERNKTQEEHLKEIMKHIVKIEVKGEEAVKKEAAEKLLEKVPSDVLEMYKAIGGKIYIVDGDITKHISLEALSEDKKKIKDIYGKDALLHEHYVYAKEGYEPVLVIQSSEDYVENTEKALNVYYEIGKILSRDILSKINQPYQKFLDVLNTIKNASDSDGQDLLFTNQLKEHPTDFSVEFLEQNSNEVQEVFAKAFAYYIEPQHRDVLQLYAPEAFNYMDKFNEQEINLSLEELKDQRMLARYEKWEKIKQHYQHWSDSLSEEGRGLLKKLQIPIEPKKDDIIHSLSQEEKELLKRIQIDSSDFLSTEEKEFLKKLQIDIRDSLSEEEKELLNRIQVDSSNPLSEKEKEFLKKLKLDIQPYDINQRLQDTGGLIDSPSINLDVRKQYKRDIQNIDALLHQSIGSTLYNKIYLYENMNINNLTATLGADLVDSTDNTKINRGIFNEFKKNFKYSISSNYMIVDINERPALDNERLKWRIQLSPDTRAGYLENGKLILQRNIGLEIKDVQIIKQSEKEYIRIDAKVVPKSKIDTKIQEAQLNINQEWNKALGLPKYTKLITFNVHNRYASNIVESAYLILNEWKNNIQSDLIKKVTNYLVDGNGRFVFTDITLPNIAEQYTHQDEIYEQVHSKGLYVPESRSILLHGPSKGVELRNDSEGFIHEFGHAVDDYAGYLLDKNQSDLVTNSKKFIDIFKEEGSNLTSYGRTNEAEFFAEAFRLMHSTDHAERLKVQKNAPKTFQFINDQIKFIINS

| SMILES | protection [1] | protection (percent survival) [1] [%] | time after treatment with LT at which animals became ill ([1]; 2.5 mg/kg) | time post exposure by which animals appeared fully recovered ([1]; 2.5 mg/kg) [h] | mode of inhibition (kinetic studies) [2] |
| --- | --- | --- | --- | --- | --- |
| Cc1cc(CNCCCC[C@@H](Nc2cc(C)c(F)c(C)c2)C(=O)NO)ccc1F [Compound 16] | fully protective | 100 | approximately 3 hours | ≤ 24 |  |
| CO[C@H](C[C@H](CCN(C)CCCc1ccc(F)c(C)c1)C(=O)NO)c1ccc(F)cc1 [Compound 40] |  |  |  |  | competitive behavior |
